Assay [1] addresses T1, Serine/threonine-protein kinase Nek5 (Homo sapiens) (UniProt Q6P3R8).
T1 sequence (whole entry): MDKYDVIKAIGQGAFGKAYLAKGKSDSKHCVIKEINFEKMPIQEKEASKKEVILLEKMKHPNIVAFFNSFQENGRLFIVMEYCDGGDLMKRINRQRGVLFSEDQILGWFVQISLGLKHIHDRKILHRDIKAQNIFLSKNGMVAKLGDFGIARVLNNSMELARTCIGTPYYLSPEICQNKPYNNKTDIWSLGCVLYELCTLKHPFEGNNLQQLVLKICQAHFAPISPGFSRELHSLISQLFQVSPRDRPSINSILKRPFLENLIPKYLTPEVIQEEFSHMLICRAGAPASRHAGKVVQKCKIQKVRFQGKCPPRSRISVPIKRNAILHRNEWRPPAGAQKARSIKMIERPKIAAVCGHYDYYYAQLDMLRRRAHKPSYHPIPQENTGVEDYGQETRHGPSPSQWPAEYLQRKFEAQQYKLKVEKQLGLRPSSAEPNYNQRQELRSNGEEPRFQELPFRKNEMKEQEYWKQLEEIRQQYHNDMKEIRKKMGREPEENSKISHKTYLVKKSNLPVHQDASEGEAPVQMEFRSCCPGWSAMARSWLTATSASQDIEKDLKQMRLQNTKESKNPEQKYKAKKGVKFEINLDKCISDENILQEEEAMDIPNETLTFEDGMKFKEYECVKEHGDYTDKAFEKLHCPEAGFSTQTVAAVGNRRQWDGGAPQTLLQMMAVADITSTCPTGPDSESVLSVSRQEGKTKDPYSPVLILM
The note with it: at 10 µM.

In assay [2] the target is Serine/threonine-protein kinase Nek6 (Homo sapiens) (UniProt Q9HC98). Description: Selectivity interaction (KinomeScan (DiscoverX)) EUB0000655a NEK6. Conditions: at 10 µM.
Serine/threonine-protein kinase Nek6 (Homo sapiens), sequence (Q9HC98 whole entry): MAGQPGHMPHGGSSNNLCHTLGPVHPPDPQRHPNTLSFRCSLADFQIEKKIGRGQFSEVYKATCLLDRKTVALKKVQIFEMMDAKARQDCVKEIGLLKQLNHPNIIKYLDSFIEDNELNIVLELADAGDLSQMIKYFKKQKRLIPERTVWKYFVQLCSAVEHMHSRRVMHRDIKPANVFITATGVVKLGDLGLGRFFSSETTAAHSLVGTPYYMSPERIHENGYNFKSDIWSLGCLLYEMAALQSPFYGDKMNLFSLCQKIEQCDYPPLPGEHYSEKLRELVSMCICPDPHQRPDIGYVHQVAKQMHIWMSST
Assay [3] concerns the target T2, Serine/threonine-protein kinase Nek1 (Homo sapiens) (UniProt Q96PY6).
T2 sequence (whole entry): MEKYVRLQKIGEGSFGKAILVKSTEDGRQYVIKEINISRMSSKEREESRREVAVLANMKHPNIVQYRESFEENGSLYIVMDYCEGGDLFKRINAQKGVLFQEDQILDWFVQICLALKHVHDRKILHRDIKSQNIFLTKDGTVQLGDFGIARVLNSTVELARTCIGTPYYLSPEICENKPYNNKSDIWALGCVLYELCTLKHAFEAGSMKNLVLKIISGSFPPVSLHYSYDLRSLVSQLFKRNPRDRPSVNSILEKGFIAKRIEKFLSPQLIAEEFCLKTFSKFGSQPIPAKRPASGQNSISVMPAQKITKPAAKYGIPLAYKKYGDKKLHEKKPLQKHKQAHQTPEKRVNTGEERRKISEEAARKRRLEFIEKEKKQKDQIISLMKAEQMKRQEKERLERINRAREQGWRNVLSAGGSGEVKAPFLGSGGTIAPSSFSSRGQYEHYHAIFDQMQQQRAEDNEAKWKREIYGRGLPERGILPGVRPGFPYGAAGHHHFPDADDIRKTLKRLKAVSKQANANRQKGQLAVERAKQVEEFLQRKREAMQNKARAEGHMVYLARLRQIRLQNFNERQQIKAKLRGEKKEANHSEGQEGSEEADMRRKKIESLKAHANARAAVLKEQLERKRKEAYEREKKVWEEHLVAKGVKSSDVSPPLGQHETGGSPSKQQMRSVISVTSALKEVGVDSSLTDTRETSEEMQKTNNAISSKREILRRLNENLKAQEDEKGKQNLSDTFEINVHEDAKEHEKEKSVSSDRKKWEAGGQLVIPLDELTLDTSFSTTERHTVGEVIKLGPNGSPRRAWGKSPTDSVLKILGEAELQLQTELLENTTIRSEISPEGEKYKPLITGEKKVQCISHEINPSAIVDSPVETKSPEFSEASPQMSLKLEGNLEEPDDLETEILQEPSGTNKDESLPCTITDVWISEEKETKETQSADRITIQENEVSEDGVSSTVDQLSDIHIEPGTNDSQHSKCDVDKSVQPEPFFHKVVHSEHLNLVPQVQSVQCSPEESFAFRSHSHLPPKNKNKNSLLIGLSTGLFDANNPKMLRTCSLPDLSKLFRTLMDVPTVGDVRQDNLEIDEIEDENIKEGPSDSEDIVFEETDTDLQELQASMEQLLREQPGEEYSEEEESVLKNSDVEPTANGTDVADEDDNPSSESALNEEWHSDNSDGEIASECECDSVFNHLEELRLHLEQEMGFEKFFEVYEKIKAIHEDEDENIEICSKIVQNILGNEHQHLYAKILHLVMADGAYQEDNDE
As to the kind of experiment: Selectivity interaction (Kinase screening (Nanosyn)) EUB0000604a NEK1.

Assay [4] addresses T3, Aurora kinase A (Homo sapiens) (UniProt O14965).
T3 sequence (whole entry): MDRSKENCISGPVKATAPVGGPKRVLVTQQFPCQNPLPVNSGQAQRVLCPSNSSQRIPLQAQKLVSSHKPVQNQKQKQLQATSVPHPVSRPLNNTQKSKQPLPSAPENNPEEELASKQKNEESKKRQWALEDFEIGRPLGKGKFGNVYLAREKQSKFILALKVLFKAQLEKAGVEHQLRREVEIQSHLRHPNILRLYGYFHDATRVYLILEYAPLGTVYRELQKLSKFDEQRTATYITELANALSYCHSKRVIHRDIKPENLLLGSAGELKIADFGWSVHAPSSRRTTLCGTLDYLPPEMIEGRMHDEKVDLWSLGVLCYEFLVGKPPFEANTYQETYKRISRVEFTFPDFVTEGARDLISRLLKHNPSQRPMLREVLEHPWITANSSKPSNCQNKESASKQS
As to the kind of experiment: Selectivity interaction (ProQinase) EUB0000171b STK6.

For `Cc1cc([C@@H](C)Nc2ccccc2C(=O)O)c2nc(N3CCOCC3)cc(=O)n2c1` [AZD-6482], the % of control in assay [1] turned out to be 100%. In turn, `CN(C)CCOc1ccc(-c2nc(-c3ccncc3)c(-c3ccc4c(c3)CC/C4=N\O)[nH]2)cc1` returned a % of control in assay [2] of 100%.

`Cc1cnc(Nc2ccc(F)cc2Cl)nc1-c1c[nH]c(C(=O)N[C@H](CO)c2cccc(Cl)c2)c1` showed a % of inhibition in assay [3] of 6%. With `C=CC(=O)Nc1cccc(C(=O)Nc2ccc(Nc3cc(-c4[nH]c(SC)nc4C)ccn3)cc2)c1`, the % of control was 74% in assay [4] (at 1 µM) and 34% in assay [4] (at 5 µM).
